In US20070015840A1, “Use of an alkyl ether of hydroxystilbene for the treatment of dry skin” (L'OREAL, priority 2002, published 2007):

Tested on: immortalized human sebocytes derived from the SZ95 line
Experiment: Lipogenesis in immortalized human sebocytes in culture (SZ95 line), Nile Red fluorescence, total lipids
Format: cell-based
Conditions: for VARIATION IN LIPIDS (relative to the control): 0.1% DMSO, 24 hours treatment, total lipids, Nile Red
Method: Resveratrol trimethyl ether was tested on a model of immortalized human sebocytes in culture, derived from the SZ95 line described in Zouboulis, C. C., Seltmann, H., Neitzel, H. & Orfanos, C. E., Establishment and Characterization of an Immortalized Human Sebaceous Gland Cell Line, J. Invest. Dermatol., 113, 1011-1020 (1999).
The test consisted in measuring the amount of lipids produced by the sebocytes of the line (at confluence), in the presence or absence of an active agent diluted in DMSO, at two different concentrations, such that the final amount of DMSO in the culture medium is 0.1% and the amount of resveratrol trimethyl ether is 0.01% (4×10^−4 M) and 0.001% (4×10^−5 M), respectively. After treatment for 24 hours, the adherent cells are treated with Nile Red (1 μg/ml). The lipid content is then quantified by measuring the fluorescence of the dye (two excitation/emission pairs: 485-540 nm for the neutral lipids and 540-620 nm for the non-neutral lipids). The results are given for the total lipids (combination of the two measurements).
The experiment is performed in sextuplicate (products assayed and control) in 96-well plates and repeated four times.

Structure (SMILES)	VARIATION IN LIPIDS (relative to the control) (0.001% (4×10^−5 M) compound)	VARIATION IN LIPIDS (relative to the control) (0.01% (4×10^−4 M) compound)	inhibition of lipogenesis (0.001%, same conditions as resveratrol trimethyl ether (second of 'respectively')) [%]	inhibition of lipogenesis (0.01%, same conditions as resveratrol trimethyl ether (first of 'respectively')) [%]	ability of sebocytes to produce sebum (qualitative statement in the description)
COc1ccc(C=Cc2cc(OC)cc(OC)c2)cc1 [resveratrol trimethyl ether, Resveratrol trimethyl ether]	+36%	+46%	–	–	–
Oc1ccc(C=Cc2cc(O)cc(O)c2)cc1 [resveratrol]	–	–	67	20	decreased
